{
  "source": "paper PMC4164441",
  "about": "“The Characterisation of an Alkali-Stable Maltogenic Amylase from Bacillus lehensis G1 and Improved Malto-Oligosaccharide Production by Hydrolysis Suppression” (PLoS ONE, 2014)",
  "biological_target": "T1, MAG1 (Shouchella lehensis, UniProt X5CPN2)",
  "T1 construct": "gene BleG1_0772; full-length ORF, 582 residues, pET21a(+) in E. coli BL21(DE3), Ni-NTA purified, tag kept (His-tag western); 68 kDa SDS-PAGE; monomer/dimer mixture; primers start MNRAGII",
  "T1 sequence (X5CPN2 entry or part of it)": "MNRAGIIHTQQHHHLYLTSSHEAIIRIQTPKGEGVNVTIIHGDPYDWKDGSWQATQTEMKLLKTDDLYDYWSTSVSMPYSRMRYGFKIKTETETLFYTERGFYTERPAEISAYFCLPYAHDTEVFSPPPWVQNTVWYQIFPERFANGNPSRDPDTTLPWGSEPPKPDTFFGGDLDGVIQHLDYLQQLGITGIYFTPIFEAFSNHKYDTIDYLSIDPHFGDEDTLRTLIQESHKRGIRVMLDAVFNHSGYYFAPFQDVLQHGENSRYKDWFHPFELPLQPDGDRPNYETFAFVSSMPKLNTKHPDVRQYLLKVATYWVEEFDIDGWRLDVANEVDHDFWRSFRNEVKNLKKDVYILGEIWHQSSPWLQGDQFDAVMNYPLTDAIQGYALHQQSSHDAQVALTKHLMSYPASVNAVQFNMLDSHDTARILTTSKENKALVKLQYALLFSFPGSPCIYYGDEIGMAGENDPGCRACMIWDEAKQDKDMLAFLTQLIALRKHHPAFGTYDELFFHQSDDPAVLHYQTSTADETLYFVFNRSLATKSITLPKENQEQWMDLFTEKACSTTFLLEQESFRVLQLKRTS",
  "assay": "DNS reducing sugar assay, Lineweaver-Burk plot",
  "format": "biochemical",
  "settings": "50 mM potassium phosphate pH 7.0, 40°C; hydrolysis; read-out: Km (mg ml^-1) (converted)",
  "source_text": "DNS reducing sugar assay, Lineweaver-Burk plot on MAG1",
  "data": [
    {"smiles": "OC[C@H]1O[C@@H]2O[C@H]3[C@H](O)[C@@H](O)[C@@H](O[C@H]4[C@H](O)[C@@H](O)[C@@H](O[C@H]5[C@H](O)[C@@H](O)[C@@H](O[C@H]6[C@H](O)[C@@H](O)[C@@H](O[C@H]7[C@H](O)[C@@H](O)[C@@H](O[C@H]8[C@H](O)[C@@H](O)[C@@H](O[C@H]1[C@H](O)[C@H]2O)O[C@@H]8CO)O[C@@H]7CO)O[C@@H]6CO)O[C@@H]5CO)O[C@@H]4CO)O[C@@H]3CO", "note": "[β-CD]", "values": [
      {"measurement": "Km", "value": 1120, "unit": "µM"}
    ]}
  ]
}
